Read-outs that look alike come from different tables or passages of the source.
Molecular target: T1, Urease Purified from Proteus mirabilis (Pr-91) (Proteus mirabilis, UniProt P17086)
T1 construct: host or cells: Proteus mirabilis (Pr-91)
Experiment: Inhibition of urease purified from Proteus mirabilis (Pr-91)
Type: biochemical
From the text: The Inhibition of Urease Purified from Proteus mirabilis (Pr-91)
Concentration of Compounds of Formula [drawing 5] for 50% Inhibition of Urease.

T1 sequence (P17086 whole entry): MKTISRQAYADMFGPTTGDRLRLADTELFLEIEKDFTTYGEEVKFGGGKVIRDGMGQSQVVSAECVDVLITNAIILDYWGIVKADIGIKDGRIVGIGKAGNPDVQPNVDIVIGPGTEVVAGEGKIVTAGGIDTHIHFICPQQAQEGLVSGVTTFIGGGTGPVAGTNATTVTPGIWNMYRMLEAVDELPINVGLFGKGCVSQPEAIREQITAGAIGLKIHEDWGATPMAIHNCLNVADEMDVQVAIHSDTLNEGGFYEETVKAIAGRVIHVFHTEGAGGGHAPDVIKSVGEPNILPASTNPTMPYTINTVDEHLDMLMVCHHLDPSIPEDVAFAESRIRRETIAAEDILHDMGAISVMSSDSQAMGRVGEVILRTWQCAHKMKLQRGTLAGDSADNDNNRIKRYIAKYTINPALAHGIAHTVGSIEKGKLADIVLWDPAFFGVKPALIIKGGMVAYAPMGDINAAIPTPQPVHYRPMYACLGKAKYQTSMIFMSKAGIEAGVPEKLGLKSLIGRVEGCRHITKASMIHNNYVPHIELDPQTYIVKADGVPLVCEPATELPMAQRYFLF
T1 sequence (P17088 whole entry, further chain): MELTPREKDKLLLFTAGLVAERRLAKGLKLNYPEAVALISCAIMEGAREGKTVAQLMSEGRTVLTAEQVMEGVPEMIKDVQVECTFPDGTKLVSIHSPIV
T1 sequence (P17087 whole entry, further chain): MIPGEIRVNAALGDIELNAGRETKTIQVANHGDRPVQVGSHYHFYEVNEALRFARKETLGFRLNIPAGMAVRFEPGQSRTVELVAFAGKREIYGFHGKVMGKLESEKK

| SMILES | IC50 [µM] | IC50 (urease purified from Proteus mirabilis (Pr-91), read-out: Concentration of compound for 50% inhibition of urease) [µM] |
| --- | --- | --- |
| NP(N)(=O)Nc1cccc(C(F)(F)F)c1 [3-Trifluoromethylphenyl, N-[3-(Trifluoromethyl)phenyl]phosphorotriamide] | 40 |  |
| Nc1ccc(NP(N)(N)=O)cc1 [4-Aminophenyl, N-(4-Aminophenyl)phosphorotriamide] | 16 |  |
| N#Cc1ccc(NP(N)(N)=O)cc1 [4-Cyanophenyl, N-(4-Cyanophenyl)phosphorotriamide] | 50 |  |
| NP(N)(=O)Nc1ccc([N+](=O)[O-])cc1 [4-Nitrophenyl, N-(4-Nitrophenyl)phosphorotriamide] | 0.35 |  |
| NP(N)(N)=O [H] |  | 0.12 |
| NP(N)(=O)Nc1ccccc1 [Phenyl] | 13 |  |

— US4242325A, “Phosphorotriamides as urease inhibitors” (priority 1979, dated 1980)
